Measurements: patent US11684614B2, “Formulations of hydroxypyridonate actinide/lanthanide decorporation agents” (priority 2017, dated 2023)

Experiments:
[1] = Radiolabeled in vivo ADME study in rats (with metabolite profiling); parameters: species or system Sprague Dawley rats
Source text: Formulated material was used in the single dose in vivo ADME characterization studies in Sprague Dawley rats and Swiss-Webster mice with 14C-labeled 3,4,3-L1(1,2-HOPO).
Pharmacokinetic parameters and disposition/biodistribution of 3,4,3-L1(1,2-HOPO) were characterized in vivo (with the aid of two 14C labels on the spermine backbone of the parent product) in two non-GLP studies using Swiss-Webster mice and Sprague Dawley rats. The study designs for these two studies are shown in TABLE 5.1 and TABLE 5.2, respectively. Groups of six mice (3 male, 3 female) were given a single dose of [14C]-3,4,3-L1(1,2-HOPO) via iv, ip, or po routes, respectively. An additional group of six mice (3 male, 3 female) were administered the 14C-labeled API with permeability enhancer (10% sodium oleate) by oral gavage (po). Similarly, groups of six rats (3 male, 3 female) were administered a single iv dose of the 14C-labeled API or a single po dose of the 14C-labeled API with 10% sodium oleate. In each of these studies, samples were collected at scheduled time points up to 24 hr post-dose and analyzed for 14C content using liquid scintillation counting. Blood, liver, kidney, feces and urine were collected and analyzed from the mice. Blood, brain, liver, kidney, lungs, spleen, skeletal muscle tissues, gastrointestinal (GI) tract samples, carcasses, feces, and urine were collected and analyzed from the rats.
The principal excretion routes of radioactivity from [14C]-3,4,3-L1(1,2-HOPO) were both the feces and urine after an iv dose based on high levels of radioactivity in both feces and urine as well as significant radioactivity in the excretory tissues, kidney, liver and GI tract. Fecal elimination by 24 hr post-dose accounted for approximately 62% and 16% of the iv administered dose in mice and rats, respectively. Urinary excretion accounted for approximately 12-23% of the iv administered dose in these rodents with renal excretion of 14C beginning as early as 5 min after iv injection in mice. In contrast, following oral administration, excretion was primarily by the fecal route accounting for approximately 89% and 41% of the orally administered dose in mice and rats, respectively, by 24 h post-dose. Urinary excretion accounted for <1% of the orally administered dose and low radioactivity levels were detected in systemic circulation and in tissues except for the GI tract. […] Based on the colonic transit time in rats of 15.5 hr, 11 the radioactivity found in the feces in the first 24 hr after po administration is most likely unabsorbed compound. […] Metabolite profiling of [14C]-3,4,3-L1(1,2-HOPO) was performed using an HPLC method on selected urine, feces, kidney, liver, and lung samples from the Sprague Dawley rat. Only samples containing the highest total radioactive levels were selected for analysis. A total of 11 peaks were detected, of which 6 were from uncharacterized interactions between the test article and matrix components because they were also seen in spiked blank matrix controls. These 6 peaks are not metabolites and are considered alternate forms of the parent compound (e.g. complexes of the test article with metallic ions). The 5 other radioactive species (peaks P1-P4 and P10) are considered potential metabolites. Feces-specific metabolite peaks P2, P3, and P10 represented a combined 10.5-11.4% and 0.5-4.2% of the administered dose after po or iv administration, respectively, in rats. Peak P10 was the most abundant peak in all samples analyzed. It represented up to 10% of the administered dose in feces after po administration while the other two feces-specific peaks represented <1% of the administered dose after po administration. Peak P10 was also the predominant, and sometimes the only, peak in feces samples after iv administration. […]

[2] = Non-GLP 7-day repeat dose beagle dog study, safety findings (SRI No. B677-13); type: in vivo, beagle dogs
Source text: Clinical observations that were associated with test article administration included post-dose diarrhea and emesis. Specifically, dogs in the mid- and high-dose groups experienced slight or extreme diarrhea on Day 1 between 1 and 6 hr post-dose. Diarrhea was absent from the lowdose group. […] By Day 2, 8 of the 9 affected dogs were normal, with the exception of one highdose group female that had continued slight diarrhea. Slight to moderate emesis occurred <2 hr post-dose (and oftentimes <1 hr post-dose) in 1-3 dogs from each of the 3,4,3-L1(1,2-HOPO) treatment groups and in none of the vehicle control-treated dogs. Post-dose emesis appeared to be dose-dependent since it occurred in 0, 1, 2, and 3 dogs out of 12 dogs per group in control, low, mid, and high dose groups, respectively. Post-dose emesis is a common response to oral dose administration in dogs, and a single occurrence of it in the low dose group could be […] rather than test article-related and is not considered a dose-limiting event. Slight post-dose emesis in this one male dog was the only finding present in the 37.5 mg/kg lowdose treatment group.
No similar renal histopathology findings were found in any of the other on-study dogs. The observation of hemosiderin without fibrosis in the kidney sections from this one dog is consistent with the renal findings having developed within one to three days prior to the Day 15 necropsy. This dog also had corresponding small increases (1.8- and 1.3-fold, respectively) in the renal function markers BUN and CR on Day 15 relative to pre-test. The timing of the renal findings in this recovery group dog is surprising given the fact that 3,4,3-L1(1,2-HOPO) was administered only on Day 1. Therefore, it is unclear if these renal findings are related specifically to high-dose administration of 3,4,3-L1(1,2-HOPO). There were no toxicologically meaningful histopathology findings in any of the dogs on Day 2 or in any of the other dogs on Day 15. Similar renal findings were also absent from the non-GLP 7-day repeat dose dog study (SRI No. B677-13) where 2 dogs/sex received formulated material at higher doses for 4 days followed by equivalent doses for 3 days and then were sacrificed on Day 8.
An evaluation of the serum levels of iron, unsaturated iron binding capacity, total iron binding capacity, magnesium, and ferritin were included in the clinical pathology analysis during the dog safety studies because 3,4,3-L1(1,2-HOPO) is a potent metal chelator.

[3] = after treatment, 2 dogs/sex, no control group

In the case of `O=C(NCCCN(CCCCN(CCCNC(=O)c1cccc(=O)n1O)C(=O)c1cccc(=O)n1O)C(=O)c1cccc(=O)n1O)c1cccc(=O)n1O` [3,4,3-L1(1,2-HOPO)], the “oral bioavailability (F) of radioactive compound” value ([1]; female rats) is reported as 1.1%, the “oral bioavailability (F) of radioactive compound” value ([1]; male rats) is reported as 0.4% and the “mean t½” value ([1]; oral administration, rats) is reported as about 60 min. The Tmax ([1]; oral dose, rodents (rats)) was about 42 min, the renal findings ([2]; 7-day repeat dose, sacrificed on Day 8) was “absent” and the “decrease in unsaturated iron binding capacity” value [2, 3] was 16-62%. For the same compound, the “increase in serum total iron levels compared with pretest” value [2, 3] was about 2 fold and the emesis and diarrhea ([2]; formulated capsules once daily for 7 days, 75.1, 150, or 300 mg/kg, ~1 hr post-dose) was “dose dependent, transient emesis and diarrhea”.
